Here are results for two compounds from patent US20260226493A1, “HERBICIDE RESISTANT PLANTS” (SYNGENTA CROP PROTECTION AG, priority 2023, published 2026).

SMILES strings stand for the structures.

Assay [1] has as its target T1, Arabidopsis thaliana BioDA variant enzymes (Arabidopsis thaliana, UniProt B0F481).
T1 construct: with the predicted N-terminal mitochondrial transit peptide removed; 6xHis-tag (N); thrombin cleavage site (N); made in house; host or cells: E. coli BL21 (DE3) bioA
Description: biochemical. As for the experimental part: (§1) These plasmids were then expressed in E. coli BL21 (DE3) bioA with 50 μg/mL kanamycin and 25 μg/mL chloramphenicol selection. Overnight cultures grown at 37° C. were used to inoculate 8×500 mL AIM in shake flasks at a ratio of 1:100. Cultures were grown at 37° C., 200 rpm for 3.5 hours and then overnight at 20° C. Cells were harvested by centrifugation for 30 minutes at 10 000 g. Cells were stored at −80° C. until extraction. 30 g of cell pellet from was thawed in 120 mL of IMAC buffer A (20 mM HEPES pH7.5, 25 mM imidazole, 500 mM sodium chloride, 0.15 mM pyridoxal phosphate, 0.5 mM TCEP, 1× complete Protease Inhibitor Tablet (Roche)). The resuspension was passed through a cell disrupter at 18 000 PSI and centrifuged at 50 000 g for 25 minutes at 4° C. The His-tagged BIO3-BIO1 protein was purified from the extract supernatant on an AKTA avant chromatography system (Cytiva) using a HisTrap FF column and eluted in IMAC buffer B ((20 mM HEPES pH7.5, 500 mM imidazole, 500 mM sodium chloride, 0.15 mM pyridoxal phosphate, 0.5 mM TCEP) followed by SEC using a HiLoad 26/60 Superdex200 column in SEC buffer (25 mM HEPES pH7.5, 150 mM sodium chloride, 0.15 mM pyridoxal phosphate, 0.5 mM TCEP). Protein concentration was measured and calculated using the absorbance at 280 nm. Extracts were diluted 1 in 4 and 10 uL was analysed by SDS PAGE.
(§2) To measure BIO3-BIO1 mutant enzyme activity in the presence of herbicide, herbicides were incubated with 20 μL of enzyme mix (100 mM EPPS pH 8.6, 0.1 mM pyridoxal phosphate, 0.1 mg/mL BSA, 50 nM BIO3-BIO1 enzyme) for 10 minutes at 20° C. in a well of a 96-well half-area black plate, followed by the addition of 20 μL of substrate mix (final concentration of 100 mM EPPS pH 8.6, 0.1 mM pyridoxal phosphate, 0.1 mg/mL BSA, 100 μM spermidine, 20 μM KAPA, 100 mM NaCO3) and further incubation for 75 minutes at 20° C. The reaction was terminated by the addition of 50 μL of derivatisation mix (final concentration of 250 mM borate NaOH pH 9.4, 3.6 mM o-phthalaldehyde, 7 mM β-mercaptoethanol, 17% (v/v) ethanol, 3.6% (v/v) methanol). The fluorescent product produced by the reaction of DAPA with o-phthalaldehyde and 7 mM β-mercaptoethanol was measured at 470 nm after excitation at 410 nm.
(§3) For IC50 calculations, appropriate dose responses of compounds L, M, B, K and G were used. Calculated percentage inhibitions were then input into GraphPad Prism 7 and IC50s calculated using the non-linear regression (vs. normalised response) equation.

Assay [2] has as its target T2, Arabidopsis thaliana BioDA variant enzymes (Arabidopsis thaliana, UniProt B0F481, C388D).
T2 construct: with the predicted N-terminal mitochondrial transit peptide removed; 6xHis-tag (N); thrombin cleavage site (N); made in house; host or cells: E. coli BL21 (DE3) bioA
Description: biochemical. As for the experimental part:
as §1, §2, §3

T2 sequence (B0F481 24-833 C388D): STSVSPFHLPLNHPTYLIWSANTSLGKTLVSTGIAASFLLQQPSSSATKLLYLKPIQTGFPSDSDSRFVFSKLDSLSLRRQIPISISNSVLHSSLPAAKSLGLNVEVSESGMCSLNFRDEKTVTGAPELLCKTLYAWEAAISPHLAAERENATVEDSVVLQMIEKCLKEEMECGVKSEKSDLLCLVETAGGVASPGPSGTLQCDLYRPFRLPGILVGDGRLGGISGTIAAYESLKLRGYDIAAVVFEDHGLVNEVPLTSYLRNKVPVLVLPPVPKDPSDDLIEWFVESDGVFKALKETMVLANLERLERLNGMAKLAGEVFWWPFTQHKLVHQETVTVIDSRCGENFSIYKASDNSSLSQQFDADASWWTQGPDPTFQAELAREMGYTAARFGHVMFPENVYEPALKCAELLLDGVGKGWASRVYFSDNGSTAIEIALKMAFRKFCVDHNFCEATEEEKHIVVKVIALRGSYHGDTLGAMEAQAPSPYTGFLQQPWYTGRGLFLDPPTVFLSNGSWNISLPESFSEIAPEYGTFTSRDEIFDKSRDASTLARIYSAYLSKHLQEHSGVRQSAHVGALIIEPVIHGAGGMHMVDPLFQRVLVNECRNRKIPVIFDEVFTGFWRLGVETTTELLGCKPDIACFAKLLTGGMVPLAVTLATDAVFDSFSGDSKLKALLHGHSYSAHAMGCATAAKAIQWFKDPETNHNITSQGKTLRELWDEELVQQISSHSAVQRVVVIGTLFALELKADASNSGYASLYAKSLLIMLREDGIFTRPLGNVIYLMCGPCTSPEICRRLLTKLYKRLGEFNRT

A word on the IC50: it is the concentration at which inhibition is half-maximal. Read a high IC50 as lower potency. Take `O=C(O)CC1CCC(=O)N1Cc1ccc(F)c(F)c1F` (stereo not shown) [Compound K, 2-[5-oxo-1-[(2,3,4-trifluorophenyl)methyl]pyrrolidin-2-yl]acetic acid]: the IC50 came out at 25 µM in assay [1] and 386 µM in assay [2].
The like results for `O=C(O)CC1CCC(=O)N1Cc1cccc(F)c1F` (stereo not shown) [Compound G, 2-[1-[(2,3-difluorophenyl)methyl]-5-oxo-pyrrolidin-2-yl]acetic acid] were, in that order, 89 µM and 361 µM.
